The source of these data is ChEMBL document CHEMBL4418495, “Entpd5 inhibitors” (2012).

The target in series [1] is T1, Ectonucleoside triphosphate diphosphohydrolase 5 (Mus musculus) (UniProt Q9WUZ9).
T1 sequence (whole entry): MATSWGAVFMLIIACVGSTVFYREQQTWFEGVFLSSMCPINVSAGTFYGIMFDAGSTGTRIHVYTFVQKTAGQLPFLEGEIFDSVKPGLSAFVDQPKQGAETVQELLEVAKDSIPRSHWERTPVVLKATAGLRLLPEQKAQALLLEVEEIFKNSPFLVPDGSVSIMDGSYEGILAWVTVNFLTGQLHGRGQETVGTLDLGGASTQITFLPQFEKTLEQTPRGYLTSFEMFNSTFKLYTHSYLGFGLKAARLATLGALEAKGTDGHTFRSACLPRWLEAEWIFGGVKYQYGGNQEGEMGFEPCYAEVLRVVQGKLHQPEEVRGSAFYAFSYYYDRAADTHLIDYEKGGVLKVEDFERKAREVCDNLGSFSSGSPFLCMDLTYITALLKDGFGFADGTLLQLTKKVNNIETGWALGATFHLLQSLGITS
The series is described as follows: Inhibition of ENTPD5 in PTEN knockout mouse MEF cells assessed as induction of ER stress by measuring increase in GRP78/BiP expression at 30 uM incubated for 24 hrs by Western blotting analysis. Type of series: cell-based.

Series [2] deals with T1, Ectonucleoside triphosphate diphosphohydrolase 5 (Mus musculus). The series is described as follows: Inhibition of ENTPD5 in PTEN knockout mouse MEF cells assessed as induction of ER stress by measuring increase in GRP78/BiP expression incubated for 24 hrs by Western blotting analysis. Type of series: cell-based.
For series [3] the target is unchanged. The series is described as follows: Inhibition of ENTPD5 in PTEN knockout mouse MEF cells assessed as induction of ER stress by measuring increase in EGF receptor degradation incubated for 24 hrs by Western blotting analysis. The class given is cell-based.
Series [4] has as its system LNCaP. The series is described as follows: Antitumor activity against human LNCAP cells xenografted in mouse assessed as induction of tumor shrinkage at 1 to 100 mg/kg, ip dosed every other day and measured after 6 weeks by microscopy. Type of series: functional, organism-based.
For series [5], the system named is LNCaP. The series is described as follows: Antitumor activity against human LNCAP cells xenografted in mouse assessed as reduction in cells left in matrigels at 1 to 100 mg/kg, ip dosed every other day and measured after 6 weeks by hematoxylin and eosin staining based microscopy. Type of series: functional, organism-based.
For series [6], the target named is T2, Nucleoside diphosphate phosphatase ENTPD5 (Homo sapiens) (UniProt O75356).
T2 sequence (whole entry): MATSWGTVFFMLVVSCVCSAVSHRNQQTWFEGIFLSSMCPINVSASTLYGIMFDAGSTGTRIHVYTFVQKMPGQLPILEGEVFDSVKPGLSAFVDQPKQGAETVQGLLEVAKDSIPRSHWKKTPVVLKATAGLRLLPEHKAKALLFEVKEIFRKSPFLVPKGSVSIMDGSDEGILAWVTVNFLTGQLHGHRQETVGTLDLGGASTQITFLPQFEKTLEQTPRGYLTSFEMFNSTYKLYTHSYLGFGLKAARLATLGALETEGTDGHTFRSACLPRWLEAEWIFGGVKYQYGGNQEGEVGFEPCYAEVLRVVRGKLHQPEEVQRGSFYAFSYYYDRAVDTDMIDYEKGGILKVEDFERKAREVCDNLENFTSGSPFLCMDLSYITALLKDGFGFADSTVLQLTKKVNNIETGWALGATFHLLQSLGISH
The series is described as follows: Inhibition of human recombinant ENTPD5 expressed in insect cells assessed as reduction in UDP hydrolysis at 1 uM incubated for 1 hr in presence of UMP, GTP and ATP by Escherichia coli UMP kinase pyrH catalyzed UMP phosphorylation coupled luciferase assay.

The target in series [7] is T2, Nucleoside diphosphate phosphatase ENTPD5 (Homo sapiens). The series is described as follows: Inhibition of human recombinant ENTPD5 expressed in insect cells assessed as reduction in UDP hydrolysis up to 10 uM incubated for 1 hr in presence of UMP, GTP and ATP by Escherichia coli UMP kinase pyrH catalyzed UMP phosphorylation coupled luciferase assay.
Series [8] concerns the target T3, Uridylate kinase (Escherichia coli (strain K12)) (UniProt P0A7E9).
T3 sequence (whole entry): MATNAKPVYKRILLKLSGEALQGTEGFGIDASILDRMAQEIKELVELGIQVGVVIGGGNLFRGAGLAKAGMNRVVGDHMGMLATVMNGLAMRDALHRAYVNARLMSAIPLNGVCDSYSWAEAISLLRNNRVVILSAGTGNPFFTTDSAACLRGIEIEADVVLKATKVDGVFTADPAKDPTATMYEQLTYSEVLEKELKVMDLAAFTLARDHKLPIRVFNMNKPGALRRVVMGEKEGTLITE
The series is described as follows: Inhibition of recombinant Escherichia coli UMP kinase pyrH catalyzed UMP phosphorylation in presence of GTP and ATP incubated for 1 hr by luminescence based assay.

Series [9] addresses T2, Nucleoside diphosphate phosphatase ENTPD5 (Homo sapiens). The series is described as follows: Inhibition of human recombinant ENTPD5 expressed in insect cells assessed as reduction in reduction in UDP hydrolysis by measuring inorganic phosphate release incubated for 1 hr by malachite green based assay.
Series [10] has as its target T4, Nucleoside diphosphate phosphatase ENTPD5 (Homo sapiens, UniProt O75356).
T4 sequence (O75356 whole entry): T2 sequence (whole entry)
The series is described as follows: Inhibition of human recombinant ENTPD5 expressed in insect cells assessed as reduction in UDP hydrolysis incubated for 1 hr in presence of UMP, GTP and ATP by Escherichia coli UMP kinase pyrH catalyzed UMP phosphorylation coupled luciferase assay.

Series [11] has as its system MEF. The series is described as follows: Toxicity in PTEN knockout mouse MEF cells assessed as reduction in cell viability at 30 uM incubated for 24 hrs. The class given is cell-based.

The source made the active and inactive calls.

Consider `COc1ccc(-n2cccc2/C=C2\C(=O)NC(=S)N(c3cccc(Br)c3)C2=O)cc1`, for which the inhibition result in [1], in series [6] and in series [9] was “Active” throughout. In addition, the inhibition result in series [2], in series [3] and in series [7] was “Dose-dependent effect” each time. The result in series [4] and in series [5] was Active. For the same compound, in [8], the inhibition entry is “inactive”.

`C[C@H]1CC[C@@H]2C(CCCC2(C)C)[C@]1(C)c1cc(O)ccc1O` (some centres undefined): the IC50 in [10] stood at 30 µM.

`CC1(C)CCC[C@]2(C)[C@H]3Cc4cc(O)ccc4O[C@]3(C)CC[C@@H]12`: the half-maximal inhibitory concentration (IC50) in [10] came out at 10 µM.

For the compound `C[C@H]1CC[C@H]2C(C)(C)CCC[C@]23Oc2ccc(O)cc2C[C@]13C` [AUREOL], the IC50 in [10] is 15 to 20 µM. Further, the Activity result in series [11] is “Toxic”.

Regarding `CCOc1ccc(N2C(=O)/C(=C/c3cccn3-c3ccc(Br)cc3)C(=O)NC2=S)c(F)c1`, the inhibition entry in series [1], in series [6] and in [9] was “Active” in each case. The inhibition entry in series [2], in series [3] and in [7] was “Dose-dependent effect” in each case. Also, the result in series [4] and in series [5] was Active. Moreover, in series [8], the inhibition result was “inactive”.

For `N#CC1=C(c2ccco2)CC(c2ccccc2)NC1=S` (centres undefined), the inhibition result in series [1], in series [6] and in series [9] was “Active” each time. The result in [4] and in [5] was Active. The inhibition entry in series [7] is “Dose-dependent effect”. For the same compound, in series [8], the inhibition entry was “inactive”.

For `COc1ccccc1/C=N\NC(=O)c1cc2c(C)nn(-c3ccccc3)c2s1`, the inhibition result in [1], in [6] and in series [9] was “Active” throughout. Moreover, the result in [4] and in series [5] was Active. For the same compound, the inhibition entry in series [7] was “Dose-dependent effect”. In addition, the inhibition entry in [8] was “inactive”.

For the compound `O=C(CN1C(=O)/C(=C2\SC(N3CCOCC3)=NC2=O)c2ccccc21)Nc1cccc(Br)c1`, the inhibition entry in series [1], in series [6] and in [9] was “Active” in each case. Moreover, the outcome in series [4] and in series [5] was Active. Besides, in [7], the inhibition result was “Dose-dependent effect”. Also, the inhibition entry in [8] was “inactive”.

Consider `C[C@H]1CC[C@]2(C)C(CCCC2(C)C)[C@]1(C)c1cc(O)ccc1O` (some centres undefined), for which the IC50 in [10] was determined as 30 µM.
